Data: patent publication US8163705B2, “Glycolipid and use thereof” (Riken, priority 2006, dated 2012)

What was measured:
[1] = tested on: Splenocytes taken out from a mouse spleen; experiment: Experimental Example 2: cytokine (IFN-γ, IL-4) production by mouse splenocytes, sandwich ELISA of culture supernatant; type: cell-based; conditions: reagent 20 ng/mL, 48 hours, FIG. 2; for IFN-γ production amount and IL-4 production amount (cytokine production pattern): mouse splenocytes 2×10^5 cells/well, culture supernatant; for IL-4-predominant cytokine production compared with compound b (OCH): mouse splenocytes
Description: Splenocytes taken out from a mouse spleen were prepared using an RPMI1640 culture broth (produced by Sigma) containing 10% Fetal calf serum (FCS) at 2×10^5 cells/well (96-well plate). A reagent was added to this culture broth at a concentration of 20 ng/mL; 2 days later (48 hours later), the cytokine content in the culture supernatant was measured by a sandwich ELISA technique. The test substances used were compound 11, compound 12, compound 13 and compound 48 as obtained in Examples 1 to 3 and Reference Example, with compound a and a compound represented by the following formula (b) (OCH, hereinafter referred to as compound b) used as the comparators.
(§1) These findings confirm that the compounds of the present invention are effective as therapeutic drugs for pathologic conditions that can be ameliorated by IL-4.

[2] = tested on: Splenocytes from a mouse spleen; experiment: Experimental Example 1: cytokine (IFN-γ, IL-4) production by mouse splenocytes, sandwich ELISA of culture supernatant; type: cell-based; conditions: mouse splenocytes 2×10^5 cells/well, reagent 40 ng/mL, 72 hours, FIG. 1
Description: Splenocytes from a mouse spleen were prepared using an RPMI1640 culture broth (produced by Sigma) containing 10% Fetal calf serum (FCS) at 2×10^5 cells/well (96-well plate). A reagent was added to this culture broth at a concentration of 40 ng/mL; 3 days later (72 hours later), the cytokine content in the culture supernatant was measured by a sandwich ELISA technique. The test substances used were compound 11, compound 12 and compound 13 as obtained in Examples 1 to 3, with a compound represented by the following formula (a) (α-GalCer, hereinafter referred to as “compound a”) used as the comparator.
as §1

[3] = tested on: Splenocytes taken out from a mouse spleen; conditions: stated as known; cited from earlier work

Structure (SMILES)	IFN-γ production amount and IL-4 production amount (cytokine production pattern) [1]	IL-4-predominant cytokine production compared with compound b (OCH) [1]	IFN-γ production amount and IL-4 production amount (cytokine production pattern) [2]	cytokine production pattern as known for the comparator [3]
CCCCCCCCCCCCCC[C@@H](O)[C@@H](O)[C@H](CO[C@H]1O[C@H](CO)[C@H](O)[C@H](O)[C@H]1O)NS(=O)(=O)c1ccc(C)cc1 [compound 11, (2S,3S,4R)-1-(α-D-galactopyranosyloxy)-2-(p-toluenesulfonylamino)-3,4-octadecanediol]	IL-4-predominant cytokine production pattern with smaller amounts of IFN-γ produced	capable of inducing IL-4-predominant cytokine production to higher extents than compound b	IL-4-predominant cytokine production pattern	–
CCCCCCCCCCCCCC[C@@H](O)[C@@H](O)[C@H](CO[C@H]1O[C@H](CO)[C@H](O)[C@H](O)[C@H]1O)NS(=O)(=O)c1ccccc1C [compound 12, (2S,3S,4R)-1-(α-D-galactopyranosyloxy)-2-(o-toluenesulfonylamino)-3,4-octadecanediol]	IL-4-predominant cytokine production pattern with smaller amounts of IFN-γ produced	capable of inducing IL-4-predominant cytokine production to higher extents than compound b	IL-4-predominant cytokine production pattern	–
CCCCCCCCCCCCCC[C@@H](O)[C@@H](O)[C@H](CO[C@H]1O[C@H](CO)[C@H](O)[C@H](O)[C@H]1O)NS(=O)(=O)c1cccc(C)c1 [compound 13, (2S,3S,4R)-1-(α-D-galactopyranosyloxy)-2-(m-toluenesulfonylamino)-3,4-octadecanediol]	IL-4-predominant cytokine production pattern with smaller amounts of IFN-γ produced	capable of inducing IL-4-predominant cytokine production to higher extents than compound b	IL-4-predominant cytokine production pattern	–
CCCCCCCCCCCCCCCCS(=O)(=O)N[C@@H](CO[C@H]1O[C@H](CO)[C@H](O)[C@H](O)[C@H]1O)[C@H](O)[C@H](O)CCCCCCCCCCCCCC [compound 48, (2S,3S,4R)-1-(α-D-galactopyranosyloxy)-2-(hexadecanesulfonylamino)-3,4-octadecanediol]	IL-4-predominant cytokine production pattern with smaller amounts of IFN-γ produced	capable of inducing IL-4-predominant cytokine production to higher extents than compound b	–	–
CCCCCCCCCCCCCCCCCCCCCCCCCC(=O)N[C@@H](COC1OC(CO)C(O)C(O)C1O)[C@H](O)[C@H](O)CCCCCCCCCCCCCC (some centres unmarked) [compound a, reference compound]	produced both IFN-γ and IL-4 in large amounts	–	produced both IFN-γ and IL-4 in large amounts	–
CCCCCCCCCCCCCCCCCCCCCCCC(=O)N[C@@H](COC1OC(CO)C(O)C(O)C1O)[C@H](O)[C@H](O)CCCCC (some centres unmarked) [compound b]	–	–	–	induces IL-4-predominant cytokine production
